Laboratory results: patent US20070274916A1, “Method for Identifying Compounds that Affect Expression of Tryptophan Hydroxylase Isoform 2” (priority 2003, published 2007)
“Also recorded” adds a separate entry of the source.

Tests used:
[1] = test system: TPH2 mRNA; test: TPH2 mRNA levels in murine raphe slice preparation of ovariectomized female mice by real-time RT-PCR; assay type: in vivo, mouse
Source text: Female mice (13 to 16 wks of age) were ovariectomized (C57BL/6s from Charles River; ER Knockout animals from Taconic). Animals were fed a soy-free rodent chow and allowed a minimum of one week to recuperate from surgery and shipping. […] Approximately six hours following the fourth dose, mice were deeply anesthetized with ketamine/xylazine and brains were removed from the skull, placed ventral side up in a mouse brain block on ice, and ice-cold razor blades were inserted into the block at 1 mm intervals. The caudal extent of the hypothalamus was used as an anatomical marker for the placement of the first razor blade, and 4 blades were placed in sequential slots, caudally. The four sections were examined and the two that encompassed the greatest extent of the dorsal raphe were placed in a tube containing […] (Ambion, Austin, Tex.) and placed at 4° C. overnight. Brain slices were removed from […] after 24 hours and stored at −80° C. in fresh tubes.
Two TPH2 primer and probe sets were generated for use in detecting TPH2 by real-time RT-PCR. Murine TPH2 forward primers were mTPH2-514F and mTPH2-1270F, their corresponding sequences are 5′-[…]-3′ (SEQ ID NO:7; corresponding to nucleotides 514 to 535 of the nucleotide sequence encoding TPH2) and 5′-[…]-3′ (SEQ ID NO:8; corresponding to nucleotides 1270 to 1290 of the nucleotide sequence encoding TPH2), respectively. The murine TPH2 reverse primers were mTPH2-585R and mTPH2-1344R, their corresponding sequences are 5′-[…]-3′ (SEQ ID NO:9; corresponding to nucleotides 567 to 585 of the nucleotide sequence encoding TPH2) and 5′-[…]-3′ (SEQ ID NO:10; corresponding to nucleotides 1324 to 1344 of the nucleotide sequence encoding TPH2), respectively. The murine TPH2 probes were mTPH2-565T and mTPH2-1292T, their corresponding sequences are: 5′-[…]-3′ (SEQ ID NO:11; corresponding to nucleotides 539 to 565 of the nucleotide sequence encoding TPH2) and 5′-[…]-3′ (SEQ ID NO:12; corresponding to nucleotides 1292 to 1317 of the nucleotide sequence encoding TPH2), respectively. The probes were labeled at the 5′ end with FAM and the 3′ end with TAMRA.
Isolation of total RNA from mouse raphe slices for real-time PCR analysis using the TAQMAN ABI PRISMS 7700 Detection System, Applied Biosystems, Foster City, Calif. was as follows. Samples were stored in […] at 4° C. overnight followed by removal of […] and storage at −80° C. until isolation of the total RNA (2 slices weigh 25 to 50 mg). Slices were removed from −80° C. and placed in 1.0 mL TRIZOL Reagent in FASTPREP processing tubes. Slices were homogenized with one pass at setting 6 for 30 seconds in FASTPREP 120 homogenizer using LYSING MATRIX D tubes with bead matrix followed by 20 seconds at setting 6 after all samples had been processed. Samples were set at room temperature for 5 minutes to allow for complete dissociation of nucleoprotein complexes followed by centrifugation of the samples at 12,000×g for 5 minutes at 4° C. Homogenates were transferred to 1.5 mL; microcentrifuge tubes and 100 μL BCP (Bromo-3-chloropropane) was added. Samples were vortexed for 15 seconds and set at room temperature for 2 to 3 minutes. Samples were centrifuged at 12,000×g for 15 minutes at 4° C. The aqueous layer was removed and placed in a new RNAse-free sterile 1.5 mL microcentrifuge tube. Five μL of 5 mg/μL glycogen was added to each sample and the samples were vortexed. Five hundred μL of isopropanol was added to each sample. The samples were vortexed for 15 seconds, set at room temperature 10 minutes, followed by centrifugation at 12,000×g for 15 minutes at 4° C. Supernatants were decanted and pellets washed with 500 μL ice cold 75% ethanol.

[2] = test system: TPH2 mRNA; test: TPH2 mRNA levels in raphe slice preparations from intact male mice by real-time RT-PCR; assay type: in vivo, mouse
Experimental: Ovariectomized C57/BL6 female mice (13 to 16 wks of age) were from Charles River Laboratories and intact C57/BL6 male mice (13 to 16 wks of age) were from Taconic Laboratories. Animals were fed a soy-free rodent chow and allowed a minimum of one week to recuperate from surgery and shipping. Mice were dosed subcutaneously in the morning (once daily for 4 days) with 0.1 cc of vehicle (sesame oil) or compound (dose is indicated for each experiment). Approximately six hours following the fourth dose, mice were deeply anesthetized with ketamine/xylazine.
For real-time RT-PCR analyses brains were removed from the skull, placed ventral side up in a mouse brain block on ice, and ice-cold razor blades are inserted into the block at 1 mm intervals. The caudal extent of the hypothalamus was used as an anatomical marker for the placement of the first razor blade, and 4 blades are placed in sequential slots, caudally. The four sections are examined and the two that encompass the greatest extent of the dorsal raphe are placed in a tube containing RNA-later and placed at 4° C. overnight. Brain slices were removed from RNALATER (Ambion) after 24 hr and stored at −80° C. in fresh tubes. An n of seven animals was used per treatment group for real-time RT-PCR studies. For in situ hybridization histochemistry brains are removed from the skull and placed ventral side up on powdered dry ice and frozen brains are stored at −80° C. until sectioning. An n of 5 to 6 animals was used per treatment group for in situ hybridization histochemistry analyses.
The murine TPH2 primers were mTPH2-514F and mTPH2-585R and the murine TPH2 probe was mTPH2-565T. mTPH2-565T was labeled with the fluorescent dye FAM and the quencher TAMRA.
Isolation of total RNA from murine raphe slices for TAQMAN analysis has been described in Example 2. Genomic DNA was removed from the total RNA samples using the DNA-FREE kit (Ambion) and cDNA synthesis performed using Multiscribe RT and the TaqMan Gold RT reagents (ABI). Reverse transcription was halted by the addition of EDTA. Samples were transferred to a storage plate and stored at −20° C.
Real-time PCR analyses using TAQMAN was as follows. A 2.5 μL of cDNA was added to each well of a 96well plate with 22.5 μl of TaqMan® reaction mix (1× Universal Master Mix (ABI), 20 nM forward and reverse 18S rRNA control primers, and 100 nM 18S rRNA control probe (ABI) and 300 nM mTPH2-514F and mTPH2-585R primers, 200 nM mTPH2-565T probe. Samples were run on an ABI PRISM 7700 Sequence Detection Instrument (Applied Biosystems (ABI), Foster City, Calif.) and collected data was analyzed using Merck Biometrics TAQMAN Plus program and statistical significance determined using a one-way ANOVA (CMG, Merck Biometrics).

Question: With `CC#C[C@]1(O)CC[C@H]2[C@@H]3CCC4=CC(=O)CCC4=C3[C@@H](c3ccc(N(C)C)cc3)C[C@@]21C` [mifepristone] as the compound, how does the “effect on TPH2 mRNA expression compared to vehicle” value ([1]; RU486 10 mpk once daily, TPH2-514 or TPH2-1270 primer/probe set, FIG. 7, 10 mg/kg) read?
Answer: Its value is “decrease; also recorded: significant reduction”.

Question: What about the “effect on TPH2 mRNA expression” value ([1]; RU486 20 mpk once daily, TPH2-514 primer/probe set, FIG. 8, 20 mg/kg) of the same compound?
Answer: Its value is “further reduction; also recorded: significant reduction”.

Question: What about the “glucocorticoid agonist/antagonist character shown by TPH2 mRNA expression” value ([1]; alone and mixed with dexamethasone, Example 2) of the same compound?
Answer: Its value is “mixed or partial agonist”.

Question: And the “effect on the dexamethasone reduction of TPH2 mRNA levels” value ([1]; co-administered with 3 mg/kg dexamethasone, ovariectomized female mice, FIG. 9, 3 mg/kg)?
Answer: Its value is “blocked; also recorded: antagonizes”.

Question: And the “reduction in TPH2 mRNA levels” value ([1]; mifepristone alone, 20 mg/kg, FIG. 9)?
Answer: Its value is 28%.

Question: What about the “effect on the dexamethasone reduction of TPH2 mRNA levels” value ([2]; co-administered with 1 mg/kg dexamethasone, FIG. 15, 1 mg/kg) of the same compound?
Answer: Its value is “blocked; also recorded: antagonizes”.

Question: What about the “effect on TPH2 message levels” value ([2]; mifepristone alone, 30 mg/kg) of the same compound?
Answer: Its value is “no effect”.

Question: What does the source list for `C[C@]12CC[C@@H]3c4ccc(O)cc4CC[C@H]3[C@@H]1CC[C@@H]2O` [17β-estradiol]?
Answer: effect on expression of TPH2 mRNA in raphe slice ([1]; 0.025 to 0.2 mpk s.c. once daily for four days, FIG. 4C): no apparent effect; effect on TPH2 mRNA levels ([2]; dose not stated): no effect

Question: What does the source list for `C[C@@H]1C[C@H]2[C@@H]3CCC4=CC(=O)C=C[C@]4(C)[C@@]3(F)[C@@H](O)C[C@]2(C)[C@@]1(O)C(=O)CO` [dexamethasone]?
Answer: reduction in TPH2 mRNA levels ([1]; 0.1 mg/kg s.c. once daily for four days, FIG. 14): 23%; reduction in TPH2 message levels ([1]; 1 mg/kg once daily for four days, FIG. 14): 30%; reduction in TPH2 mRNA levels ([1]; 3 mg/kg s.c. once daily for four days, FIG. 14): 44%; reduction in TPH2 mRNA levels ([1]; dexamethasone 3 mg/kg once daily for four days, FIG. 9): 40%; reduction in TPH2 mRNA levels ([2]; 1 mpk once daily for four days, FIG. 15): 26%
